{"source": "paper PMC11740271", "about": "(Annals of neurology, 2024)", "key": {"[1]": {"tested_on": "6 Hz (44 mA) seizures", "experiment": "6 Hz", "assay_type": "in vivo, mice", "settings": "Mus musculus, ip, 1 h, read-out: ED50, 6 Hz (44 mA)"}, "[2]": {"tested_on": "corneal kindled seizures", "experiment": "Corneal kindled mouse model", "assay_type": "in vivo, mice", "settings": "ip, read-out: ED50, CKM"}, "[3]": {"tested_on": "hippocampal paroxysmal discharges (HPDs)", "experiment": "Intra-hippocampal kainate mouse", "assay_type": "in vivo", "settings": "male mice, 50 mg/kg i.p., 1 h post-drug, mean ± SEM"}, "[4]": {"tested_on": "motor function and coordination", "experiment": "Rotarod test in mice", "assay_type": "in vivo", "settings": "male mice (C57BL/6J), i.p., PT 0.5 h; 95% CI in parentheses"}, "[5]": {"experiment": "Minimal motor impairment", "assay_type": "in vivo, rats", "settings": "Sprague-Dawley, rat, in vivo, ip"}, "[6]": {"tested_on": "minimal motor impairment (ataxia)", "experiment": "Minimal motor impairment", "assay_type": "in vivo, rats", "settings": "i.p."}, "[7]": {"tested_on": "autonomic, neuromuscular, sensorimotor and behavioral functions", "experiment": "Modified Irwin test in rats", "assay_type": "in vivo", "settings": "male rats, i.p."}, "[8]": {"tested_on": "GLT-1", "experiment": "GLT-1 expression in neuron-glia cultures", "assay_type": "cell-based, rat", "settings": "14 DIV neuron-glia cultures, 72 h"}, "[9]": {"tested_on": "GLT-1", "experiment": "GLT-1 expression in mouse hippocampus", "assay_type": "in vivo", "settings": "C57BL/6J mice"}, "[10]": {"tested_on": "GLT-1", "experiment": "GLT-1 expression in mouse cortex", "assay_type": "in vivo", "settings": "C57BL/6 mice"}, "[11]": {"tested_on": "EAAT1", "settings": "cited from earlier work"}, "[12]": {"tested_on": "EAAT3", "settings": "cited from earlier work"}, "[13]": {"tested_on": "TMEV-induced seizures", "settings": "mice; doses as in Table S14; cited from earlier work"}, "[14]": {"tested_on": "corneal kindled seizures", "settings": "mice, i.p.; from literature ED50/TD50, ref as in Table S11; cited from earlier work"}, "[15]": {"tested_on": "6 Hz (44 mA) seizures", "settings": "mice, i.p.; from literature ED50/TD50, ref as in Table S11; cited from earlier work"}}, "note": "Values joined by “and” are separate entries in the source; they are usually repeats but may differ in a detail not shown here. Equal values may be shown once. Read-outs that look alike come from different tables or passages of the source.", "data": [{"smiles": "C[C@H](C(=O)NCc1ccccc1)N1C(=O)CCC1=O", "note": "[(R)-AS-1, (R)-N-benzyl-2-(2,5-dioxopyrrolidin-1-yl)propanamide]", "values": [{"measurement": "ED50", "setting": "[1]", "value": 65.9, "unit": "mg/kg"}, {"measurement": "ED50", "setting": "[2]; 1 h", "value": 38.2, "unit": "mg/kg"}, {"measurement": "ED50", "setting": "[2]; […]", "value": 40.5, "unit": "mg/kg"}, {"measurement": "HPD count as percent of baseline (peak effect)", "setting": "[3]", "value": "52.81 ± 13.45% and ~ 50%"}, {"measurement": "TD50, rotarod test", "setting": "[4]", "value": "168.2 (117.4–242.0) mg/kg"}, {"measurement": "TD50 at […]", "setting": "[5]; female", "value": "> 500", "unit": "mg/kg"}, {"measurement": "TD50 at 0.5 h", "setting": "[5]; male", "value": 254, "unit": "mg/kg"}, {"measurement": "N/F with adverse effects, TOX (MMI)", "setting": "[6]; female rats, 500 mg/kg, […]", "value": "2/8"}, {"measurement": "abnormal gait, animals affected / tested", "setting": "[6]; female rats, 500 mg/kg, […]", "value": "3/8"}, {"measurement": "tremors, animals affected / tested", "setting": "[6]; female rats, 500 mg/kg, […]", "value": "6/8"}, {"measurement": "slight ataxia, share of rats", "setting": "[6]; female rats, 500 mg/kg, at 0.5 h and 1 h", "value": 12.5, "unit": "%"}, {"measurement": "N/F with adverse effects, TOX (MMI)", "setting": "[6]; male rats, 300 mg/kg, 1 h", "value": "1/8"}, {"measurement": "N/F with adverse effects, TOX (MMI)", "setting": "[6]; male rats, 300 mg/kg, […]", "value": "1/8"}, {"measurement": "adverse events at later time points (Irwin test)", "setting": "[7]; 300 mg/kg, 2, 4, and 24 h", "value": "no adverse events"}, {"measurement": "staggering, share of rats (Irwin test)", "setting": "[7]; 300 mg/kg, 0.5 h, 1/4", "value": 25, "unit": "%"}, {"measurement": "ataxia, share of rats (Irwin test)", "setting": "[7]; 300 mg/kg, 0.5 h, 2/4", "value": 50, "unit": "%"}, {"measurement": "ataxia, share of rats (Irwin test)", "setting": "[7]; 300 mg/kg, 1 h, 1/4", "value": 25, "unit": "%"}, {"measurement": "staggering, share of rats (Irwin test)", "setting": "[7]; 300 mg/kg, 1 h, 2/4", "value": 50, "unit": "%"}, {"measurement": "anesthesia, share of rats (Irwin test)", "setting": "[7]; 300 mg/kg, […], 2 rats out of 4", "value": 50, "unit": "%"}, {"measurement": "tolerability in the Irwin test", "setting": "[7]; doses of 100, 150, and 250 mg/kg, all time points", "value": "very well tolerated"}, {"measurement": "GLT-1 protein expression (Western blotting)", "setting": "[8]; 100 nM and 100 μM", "value": "did not alter"}, {"measurement": "GLT-1 expression in the hippocampus (qualitative confocal microscopy)", "setting": "[9]; 100 mg/kg i.p. BID for 7 days", "value": "did not alter"}, {"measurement": "GLT-1 protein expression in brain lysates (quantitative Western blot)", "setting": "[10]; 100 mg/kg i.p. BID for 7 days", "value": "did not show any alteration"}, {"measurement": "interaction with EAAT1", "setting": "[11]", "value": "does not interact"}, {"measurement": "interaction with EAAT3", "setting": "[12]", "value": "does not interact"}]}, {"smiles": "C=C(C)[C@@H]1CCC(C)=C[C@H]1c1c(O)cc(CCCCC)cc1O", "note": "[Cannabidiol]", "values": [{"measurement": "effect in the TMEV model", "setting": "[13]", "value": "effectively reduced TMEV-induced seizures"}]}, {"smiles": "NC(=O)N1c2ccccc2C=Cc2ccccc21", "note": "[Carbamazepine]", "values": [{"measurement": "effect in the TMEV model", "setting": "[13]", "value": "ineffective"}]}, {"smiles": "CCOC(=O)Nc1ccc(NCc2ccc(F)cc2)cc1N", "note": "[Ezogabine]", "values": [{"measurement": "PI, CKM (reference ASMs)", "setting": "[14]", "value": 1.5}]}, {"smiles": "COC[C@@H](NC(C)=O)C(=O)NCc1ccccc1", "note": "[Lacosamide]", "values": [{"measurement": "effect in the TMEV model", "setting": "[13]", "value": "significantly reduced seizure burden"}]}, {"smiles": "Nc1nnc(-c2cccc(Cl)c2Cl)c(N)n1", "note": "[Lamotrigine]", "values": [{"measurement": "PI, CKM (reference ASMs)", "setting": "[14]", "value": 1.0}, {"measurement": "effect in the TMEV model", "setting": "[13]", "value": "ineffective"}]}, {"smiles": "CC[C@@H](C(N)=O)N1CCCC1=O", "note": "[Levetiracetam]", "values": [{"measurement": "effect in the TMEV model", "setting": "[13]", "value": "significantly reduced seizure burden"}]}, {"smiles": "Cc1ccsc1C(=CCCN1CCC[C@@H](C(=O)O)C1)c1sccc1C", "note": "[Tiagabine]", "values": [{"measurement": "PI, 6 Hz, 44 mA (reference ASMs)", "setting": "[15]", "value": 6}, {"measurement": "effect in the TMEV model", "setting": "[13]", "value": "significantly reduced seizure burden"}]}, {"smiles": "CCCC(CCC)C(=O)O", "note": "[Valproate]", "values": [{"measurement": "effect in the TMEV model", "setting": "[13]", "value": "significantly reduced seizure burden"}]}, {"smiles": "CN(C)CCC=C1c2ccccc2CCc2ccccc21", "note": "[amitriptyline, reference compound]", "values": [{"measurement": "GLT-1 signal in the hippocampus (qualitative confocal microscopy)", "setting": "[9]; 10 mg/kg i.p. QD for 7 days", "value": "strong increase"}, {"measurement": "GLT-1 protein expression in brain lysates (quantitative Western blot)", "setting": "[10]; 10 mg/kg i.p. for 7 days, P < 0.05", "value": "significant increase"}]}, {"smiles": "CO/N=C(\\C(=O)N[C@@H]1C(=O)N2C(C(=O)O)=C(CSc3nc(=O)c(=O)[nH]n3C)CS[C@H]12)c1csc(N)n1", "note": "[ceftriaxone, reference compound]", "values": [{"measurement": "GLT-1 protein expression (Western blotting)", "setting": "[8]; 1 mM", "value": "significantly increased"}]}]}
